Assays:
[1] = Plasma concentration in human MPO transgenic thioglycollate-induced peritonitis mouse model at 30 mg/kg, po measured after 6 hrs by LC/MS analysis; type: ADME, organism-based
[2] = Cmax in CD-1 mouse at 3 mg/kg, po by LC/MS analysis; type: ADME, organism-based; design: route oral, dose 3 mg/kg; details: in vivo
[3] = target: T1, Myeloperoxidase (Mus musculus, UniProt P11247); assay: Inhibition of PMA-induced MPO in mouse Neutrophil incubated for 3 mins by luminometry; type: tissue-based
T1 sequence (P11247 whole entry): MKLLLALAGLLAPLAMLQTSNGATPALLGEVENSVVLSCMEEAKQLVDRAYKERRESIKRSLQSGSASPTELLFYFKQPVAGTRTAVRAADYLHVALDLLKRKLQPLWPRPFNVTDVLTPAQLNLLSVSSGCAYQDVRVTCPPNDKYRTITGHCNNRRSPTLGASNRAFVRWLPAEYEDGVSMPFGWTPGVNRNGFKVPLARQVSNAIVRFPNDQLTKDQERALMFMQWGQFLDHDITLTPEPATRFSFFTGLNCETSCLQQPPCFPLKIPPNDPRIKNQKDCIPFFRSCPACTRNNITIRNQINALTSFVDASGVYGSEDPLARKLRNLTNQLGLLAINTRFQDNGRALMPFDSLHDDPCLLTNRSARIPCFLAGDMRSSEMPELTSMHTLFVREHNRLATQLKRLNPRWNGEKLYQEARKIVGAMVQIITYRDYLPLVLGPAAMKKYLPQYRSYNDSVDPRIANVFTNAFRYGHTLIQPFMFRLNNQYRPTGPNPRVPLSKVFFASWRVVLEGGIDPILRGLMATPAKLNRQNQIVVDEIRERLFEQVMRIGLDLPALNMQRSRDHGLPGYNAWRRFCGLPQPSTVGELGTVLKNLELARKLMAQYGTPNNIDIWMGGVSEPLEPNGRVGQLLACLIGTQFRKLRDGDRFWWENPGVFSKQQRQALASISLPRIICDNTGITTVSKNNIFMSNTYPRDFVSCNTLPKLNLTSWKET

[4] = Protein binding in human plasma assessed as free fraction; type: ADME, cell-free
[5] = Protein binding in mouse plasma assessed as free fraction; type: ADME, cell-free
[6] = Metabolic stability in mouse liver microsomes assessed as compound remaining; type: ADME, Microsome
[7] = target: T2, Cytochrome P450 2C8 (Homo sapiens, UniProt P10632); assay: Inhibition of CYP2C8 (unknown origin); type: ADME
T2 sequence (P10632 whole entry): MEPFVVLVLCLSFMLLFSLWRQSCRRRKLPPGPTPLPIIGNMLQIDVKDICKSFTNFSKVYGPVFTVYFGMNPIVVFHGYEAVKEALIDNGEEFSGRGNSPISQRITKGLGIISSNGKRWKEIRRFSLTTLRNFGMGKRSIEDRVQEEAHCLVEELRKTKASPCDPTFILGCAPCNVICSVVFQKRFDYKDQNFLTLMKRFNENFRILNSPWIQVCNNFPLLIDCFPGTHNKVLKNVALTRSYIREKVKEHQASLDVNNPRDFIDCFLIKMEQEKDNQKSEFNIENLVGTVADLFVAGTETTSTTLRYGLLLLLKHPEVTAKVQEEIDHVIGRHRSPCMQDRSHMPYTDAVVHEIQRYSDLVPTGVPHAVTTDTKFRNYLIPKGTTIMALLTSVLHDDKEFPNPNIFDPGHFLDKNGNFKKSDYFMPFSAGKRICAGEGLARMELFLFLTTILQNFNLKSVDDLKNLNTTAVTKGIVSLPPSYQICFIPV

[8] = target: Cytochrome P450 2D6 (Homo sapiens, UniProt P10635); assay: Inhibition of CYP2D6 (unknown origin); type: ADME
[9] = target: T3, Eosinophil peroxidase (Homo sapiens, UniProt P11678); assay: Inhibition of human EPX bromination activity using tyrosine as substrate by measuring 3-bromo tyrosine formation incubated for 10 mins
T3 sequence (P11678 whole entry): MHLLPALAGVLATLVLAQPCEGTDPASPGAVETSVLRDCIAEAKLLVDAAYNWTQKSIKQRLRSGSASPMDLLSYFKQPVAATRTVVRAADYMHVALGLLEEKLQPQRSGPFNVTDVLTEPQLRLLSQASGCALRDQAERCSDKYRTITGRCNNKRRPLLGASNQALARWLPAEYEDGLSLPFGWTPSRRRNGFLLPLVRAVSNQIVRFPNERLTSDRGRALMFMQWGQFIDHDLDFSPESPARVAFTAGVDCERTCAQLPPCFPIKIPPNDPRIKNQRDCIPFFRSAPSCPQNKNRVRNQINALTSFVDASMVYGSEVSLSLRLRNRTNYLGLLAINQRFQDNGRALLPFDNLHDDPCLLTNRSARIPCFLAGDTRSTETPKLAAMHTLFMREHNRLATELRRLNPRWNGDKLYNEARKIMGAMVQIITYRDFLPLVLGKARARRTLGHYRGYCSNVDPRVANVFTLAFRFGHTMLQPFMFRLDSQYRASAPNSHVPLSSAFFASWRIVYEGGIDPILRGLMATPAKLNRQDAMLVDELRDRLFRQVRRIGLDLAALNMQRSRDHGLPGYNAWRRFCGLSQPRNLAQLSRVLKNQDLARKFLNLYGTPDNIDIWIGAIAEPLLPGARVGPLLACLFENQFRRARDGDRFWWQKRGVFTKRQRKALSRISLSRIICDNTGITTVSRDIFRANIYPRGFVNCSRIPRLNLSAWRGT

[10] = target: T4, Methylated-DNA--protein-cysteine methyltransferase (Homo sapiens, UniProt P16455); assay: Inhibition of human MGMT using 06-benzylguanine as substrate incubated for 30 mins by LC/MS analysis; details: 0.5 h
T4 sequence (P16455 whole entry): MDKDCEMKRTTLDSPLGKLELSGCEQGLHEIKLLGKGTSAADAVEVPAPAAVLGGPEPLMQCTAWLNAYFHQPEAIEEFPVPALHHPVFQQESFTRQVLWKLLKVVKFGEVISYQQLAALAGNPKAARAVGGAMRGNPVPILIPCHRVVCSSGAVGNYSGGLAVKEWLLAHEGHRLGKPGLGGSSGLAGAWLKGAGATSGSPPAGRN

[11] = Stability of compound at pH 1 assessed as half life; type: physicochemical; details: buffer
[12] = animal or person; details: Mus musculus, po, 6 h, read-out: INH

Cytochrome P450 2D6, sequence (P10635 whole entry): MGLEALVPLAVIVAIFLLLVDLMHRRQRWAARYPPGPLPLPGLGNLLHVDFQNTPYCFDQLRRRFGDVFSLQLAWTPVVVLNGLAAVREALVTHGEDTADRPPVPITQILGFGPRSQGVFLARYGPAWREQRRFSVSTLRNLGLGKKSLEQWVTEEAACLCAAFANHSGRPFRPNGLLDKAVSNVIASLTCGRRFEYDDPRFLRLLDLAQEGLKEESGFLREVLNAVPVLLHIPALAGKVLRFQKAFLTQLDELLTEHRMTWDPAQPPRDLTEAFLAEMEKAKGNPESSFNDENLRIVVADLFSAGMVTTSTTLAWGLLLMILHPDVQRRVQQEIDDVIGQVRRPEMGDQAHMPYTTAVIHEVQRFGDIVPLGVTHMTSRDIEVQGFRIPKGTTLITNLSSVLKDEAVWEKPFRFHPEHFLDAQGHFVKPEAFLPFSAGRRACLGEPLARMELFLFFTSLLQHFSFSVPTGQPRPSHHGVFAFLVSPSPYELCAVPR

- concentration at 6 h [1]: 26 µM
- Cmax [2]: 13 µM
- IC50 [3]: 9.5 µM
- fraction unbound [4]: 0.17
- fraction unbound [5]: 0.36
- Stabilty [6]: 39%
- IC50 [7]: > 10 µM
- IC50 [8]: > 10 µM
- IC50 [9]: 0.032 µM
- inhibition (INH) [10]: Not Active
- half-life [11]: > 100 h
Structure (SMILES): Nc1cc(Cc2ccccc2)c2nn[nH]c2n1
- inhibition in vivo at 30 mg/kg [12]: 55%

Reference: ChEMBL document CHEMBL4699540, “Discovery and structure activity relationships of 7-benzyl triazolopyridines as stable, selective, and reversible inhibitors of myeloperoxidase” (Bioorg Med Chem, 2020)
